The source of these data is patent publication US9493420B2, “Quinoline derivatives and uses thereof” (Portland State University, priority 2005, dated 2016).

The subject of one series is P. falciparum strain D6. The conditions noted are these: cited from earlier work.
Series [1] relates to P. falciparum strain FCR3. The conditions noted are these: cited from earlier work.
The test system of a further series is P. falciparum strain W2. The following applies: cited from earlier work. Also: key: S = sensitive; R = resistant; S/R = intermediate level of resistance.
The next series relates to P. falciparum strain Dd2. The following applies: cited from earlier work.
For series [2], the system named is P. falciparum strain TM91C235. The conditions noted are these: cited from earlier work. Also: key: S = sensitive; R = resistant; S/R = intermediate level of resistance.
In series [3] the test system is D6 (CQ^S) P. falciparum strain. Kind of series: In vitro fluorescence (Sybr Green I) growth inhibition assay, D6 strain. The following applies: Plasmodium falciparum, D6; Table 13; growth inhibition; read-out: IC50 (nM) D6 (CQ^S). In kind it is cell-based. An excerpt: (§1) One exemplary method for measuring inhibitory effects of RCQ compound in vitro has been reported by Smilkstein et al. (Antimicrob. Agents Chemother., 48(5):1803-1806, 2004). This method employs fluorescent detection of the level of parasitemia in cultured red blood cells and can be automated for high-throughput screening of antimalarial RCQs. This exemplary method allows the inhibitory agent (such as a RCQ) to be in contact with the parasite for an entire developmental cycle without purine starvation, which is in contrast to the traditional ^3H-hypoxanthine method (Desjardins et al., Antimicrob. Agents Chemother., 16(6):710-718, 1979). Briefly, to perform the Smilkstein et al. method, an initial parasitemia of approximately 0.2% is attained by adding uninfected red blood cells (RBCs) to a stock culture of Plasmodium sp.-infected RBCs. […] After a period of incubation (such as about 72 hours), a sufficient amount (e.g., 100 μL) of a fluorescent DNA binding dye-detergent mixture (e.g., Sybr Green I dye-detergent mixture) to lyse cells and bind to DNA is added to the reactions. Because uninfected RBCs have no DNA, only parasite DNA (in infected RBCs) is available for binding to the fluorescent dye (e.g., Sybr Green I). Samples are then incubated in the dark for a period of time (e.g., one hour), followed by measurement of levels of fluorescence. For Sybr Green I, excitation and emission wavelength are 485 and 530 nm, respectively. Fluorescence readings, which represent the amount of parasite DNA in the sample, can be plotted against the Log [drug] and fit to a curve by nonlinear regression to obtain the IC50 value for the tested compound.
(§2) An in vitro fluorescence assay for determining IC50 of antimalarial drugs was performed as previously described by Smilkstein et al. (Antimicrob. Agents Chemother., 48(5):1803-1806, 2004). This relatively low-cost procedure can be automated for high-throughput screening of the antimalarial activities of RCQs described herein. Advantageous, this method also allows the tested agent (e.g, a RCQ) to be in contact with the parasite for an entire developmental cycle without purine starvation (which occurs with the commonly used ^3H-hypoxanthine method; see, e.g., Desjardins et al., Antimicrob. Agents Chemother., 16, (6):[…], 1979).
(§3) Briefly, an initial parasitemia of approximately 0.2% was attained by addition of uninfected red blood cells to a stock culture of cells infected with Dd2 (CQ^R) or D6 (CQ^S) P. falciparum strains. A 10 mM RCQ_02 solution (in DMSO) was prepared. RCQ_02 (at a final concentration from 10^−11 to 10^−4 M) and infected red blood cells (at a final concentration of 2% (v/v)) were mixed in 100 μL samples in individual wells of a 96-well plate. Each sample was prepared in triplicate. A triplicate set of reactions containing CQ (instead of RCQ_02) was included as a control. After a 72 hour incubation period, Sybr Green I dye-detergent mixture (100 μL) was added to each reaction. The samples were further incubated for an hour in the dark, and then placed in a 96-well fluorescence plate reader (Gemini-EM, […]) and analyzed with excitation and emission wavelength bands at 485 and 530 nm, respectively. Fluorescence readings were plotted against the Log [drug], and curve fitting performed by nonlinear regression to find the IC50 value.

Series [4] has as its system Dd2 (CQ^R) P. falciparum strain. Kind of series: In vitro fluorescence (Sybr Green I) growth inhibition assay, Dd2 strain. It counts as cell-based. The conditions noted are these: Plasmodium falciparum, DD2; Table 13; growth inhibition; read-out: IC50 (nM) Dd2 (CQ^R).
From the text: as §1, §2, §3

Series [5] concerns mitogen-induced murine spleen lymphocytes. It counts as cell-based. The conditions noted are these: mouse spleen lymphocytes; for Cytotoxicity: LC50, 72 hours + 24 hours resazurin; for cytotoxicity values: Table 14. As for the experimental part: Mouse spleen lymphocytes were isolated from C57B1/6J mice by teasing tissues on a metallic sieve screen. […] Two hundred (200) μl isolated cells were then seeded in separate wells of a 96-well flat-bottom tissue culture plate at a density of 2×10^5 cells per well. […] After 72 hours incubation in a humidified atmosphere at 37° C. and 5% CO2, a solution of resazurin PBS was added to a final concentration 10 μM, and the plates were returned to the incubator for another 24 hours. Resazurin is a substrate which changes color in response to metabolic activity (such as, living cells). […] LC50 values were determined from plots of florescence versus drug concentration using non-linear regression by Prism software.
In general terms: Alamar Blue is a resazurin reagent that responds to reducing activity.

Series [6] relates to W2 (CQ^R) P. falciparum strain. Put plainly: In vitro fluorescence (Sybr Green I) growth inhibition assay, W2 strain. In kind it is cell-based. The following applies: Plasmodium falciparum, W2; Table 13; growth inhibition; read-out: IC50 (nM) W2 (CQ^R).
The target of series [7] is T1, recombinant human serotonin (hSERT) transporter (Homo sapiens, UniProt P31645).
T1 construct: expressed in transfected cells; host or cells: HEK cells expressing hSERT
Kind of series: Inhibition of [3H]neurotransmitter uptake, hSERT. In kind it is cell-based. The method, then:
(§4) Selected RCQs were tested for inhibition of [^3H]neurotransmitter uptake by the recombinant human serotonin (hSERT), dopamine (HEK-hDAT), and norepinephrine (hNET) transporters by a modification of the method of Eshleman et al. (J. Pharmacol. Exp. Ther., 289(2):877-885, 1999). HEK-hDAT, hSERT, and -hNET expressing cells were grown on tissue culture dishes. After removing the medium and washing the plates with Ca^2+-, Mg^2+-free phosphate buffered saline (PBS), fresh medium was added and the plates were placed in a 25° C. water bath for 5 minutes. Cells were gently lifted from the plates and cell clusters separated by trituration. 50 μL aliquots of the suspended cells were added to assay tubes containing drugs and Krebs-HEPES assay buffer in a final volume of 0.5 mL.
(§5) Competition experiments were conducted in triplicate. After a 10 minute preincubation period at 25° C., [^3H]neurotransmitter (20 nM final concentration; [^3H]DA, [^3H]5-HT, or [^3H]NE) were added, and the mixtures incubated for 10 minutes. Reactions were terminated by filtration through Wallac filtermat A filters (presoaked in 0.05% polyethylenimine), using a Tomtec cell harvester. Scintillation fluid was added to each filtered spot, and radioactivity remaining on the filters determined using a Wallac 1205 Betaplate scintillation counter.
(§6) Specific uptake was defined as the difference in uptake observed in the absence and presence of 5 μM mazindol (hDAT and hNET) or 5 μM imipramine (hSERT). Inhibition of uptake was determined by non-linear regression using Prism software.

Series [8] has as its target T2, recombinant human dopamine (HEK-hDAT) transporter (Homo sapiens, UniProt Q01959).
T2 construct: expressed in transfected cells; host or cells: HEK cells expressing hDAT (HEK-hDAT)
Put plainly: Inhibition of [3H]neurotransmitter uptake, hDAT. In kind it is cell-based. The method, then: as §4, §5, §6

Series [9] has as its target T3, recombinant human norepinephrine (hNET) transporter (Homo sapiens, UniProt P23975).
T3 construct: expressed in transfected cells; host or cells: HEK cells expressing hNET
Kind of series: Inhibition of [3H]neurotransmitter uptake, hNET. In kind it is cell-based. As for the experimental part:
as §4, §5, §6
For Drug susceptibility, strain D6 in this document: key: S = sensitive; R = resistant; S/R = intermediate level of resistance.
For Drug susceptibility, strain Dd2 in this document: key: S = sensitive; R = resistant; S/R = intermediate level of resistance.
For Drug susceptibility, strain FCR3 in this document: key: S = sensitive; R = resistant; S/R = intermediate level of resistance.

T1 sequence (P31645 whole entry): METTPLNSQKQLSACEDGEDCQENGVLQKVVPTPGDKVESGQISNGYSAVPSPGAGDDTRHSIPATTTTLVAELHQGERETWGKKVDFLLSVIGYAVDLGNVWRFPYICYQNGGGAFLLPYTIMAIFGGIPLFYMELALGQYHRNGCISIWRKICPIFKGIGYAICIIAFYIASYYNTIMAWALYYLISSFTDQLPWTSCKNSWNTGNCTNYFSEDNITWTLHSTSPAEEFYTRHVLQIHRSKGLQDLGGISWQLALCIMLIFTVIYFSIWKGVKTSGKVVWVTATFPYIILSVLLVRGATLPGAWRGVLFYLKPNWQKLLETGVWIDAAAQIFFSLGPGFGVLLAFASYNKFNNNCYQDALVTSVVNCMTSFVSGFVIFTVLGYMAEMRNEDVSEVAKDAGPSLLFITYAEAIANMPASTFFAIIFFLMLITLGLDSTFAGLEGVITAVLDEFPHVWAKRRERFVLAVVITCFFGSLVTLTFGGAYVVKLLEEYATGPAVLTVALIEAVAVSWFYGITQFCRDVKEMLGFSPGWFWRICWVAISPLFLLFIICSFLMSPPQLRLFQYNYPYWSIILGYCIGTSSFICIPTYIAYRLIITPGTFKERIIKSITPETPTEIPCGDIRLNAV
T2 sequence (Q01959 whole entry): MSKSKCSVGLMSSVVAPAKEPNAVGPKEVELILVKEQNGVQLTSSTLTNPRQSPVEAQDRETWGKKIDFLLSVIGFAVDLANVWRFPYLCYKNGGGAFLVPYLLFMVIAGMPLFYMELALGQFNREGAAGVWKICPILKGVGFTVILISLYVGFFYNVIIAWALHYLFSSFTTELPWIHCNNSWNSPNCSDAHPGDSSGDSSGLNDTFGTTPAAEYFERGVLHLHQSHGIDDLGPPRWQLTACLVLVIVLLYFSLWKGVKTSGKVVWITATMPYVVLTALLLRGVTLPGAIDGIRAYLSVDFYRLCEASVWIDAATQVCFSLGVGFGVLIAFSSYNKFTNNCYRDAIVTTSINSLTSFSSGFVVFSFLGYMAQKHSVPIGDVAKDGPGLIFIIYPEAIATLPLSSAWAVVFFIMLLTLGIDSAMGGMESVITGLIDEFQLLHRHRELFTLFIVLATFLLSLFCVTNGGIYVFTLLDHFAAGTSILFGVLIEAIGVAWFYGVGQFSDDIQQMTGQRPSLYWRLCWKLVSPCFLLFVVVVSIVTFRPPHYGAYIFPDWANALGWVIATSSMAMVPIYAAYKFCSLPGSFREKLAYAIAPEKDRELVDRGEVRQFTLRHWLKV
T3 sequence (P23975 whole entry): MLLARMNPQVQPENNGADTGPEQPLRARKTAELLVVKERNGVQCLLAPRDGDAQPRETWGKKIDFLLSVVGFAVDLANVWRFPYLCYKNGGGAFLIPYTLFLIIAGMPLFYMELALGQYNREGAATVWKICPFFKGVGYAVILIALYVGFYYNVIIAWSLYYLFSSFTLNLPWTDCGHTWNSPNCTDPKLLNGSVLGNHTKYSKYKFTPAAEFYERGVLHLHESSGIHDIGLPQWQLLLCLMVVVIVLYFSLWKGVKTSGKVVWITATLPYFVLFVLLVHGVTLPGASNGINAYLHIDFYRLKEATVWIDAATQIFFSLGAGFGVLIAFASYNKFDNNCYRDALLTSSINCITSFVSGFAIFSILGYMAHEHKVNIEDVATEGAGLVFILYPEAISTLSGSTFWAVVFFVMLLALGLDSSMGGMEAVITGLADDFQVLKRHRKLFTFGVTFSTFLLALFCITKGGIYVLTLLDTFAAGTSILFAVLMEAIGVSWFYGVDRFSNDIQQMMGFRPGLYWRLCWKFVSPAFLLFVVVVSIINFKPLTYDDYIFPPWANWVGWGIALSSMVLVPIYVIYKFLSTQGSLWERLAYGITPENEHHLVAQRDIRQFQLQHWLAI

For `CC1(C)N=C(N)N=C(N)N1c1ccc(Cl)cc1` [Cycloguanil], in the series with P. falciparum strain D6, the “Drug susceptibility, strain D6” value is “S”. Also, in series [1], the “Drug susceptibility, strain FCR3” value is “S”. The “Drug susceptibility, strain W2” value with P. falciparum strain W2 was “R”. The “Drug susceptibility, strain Dd2” value in the series on P. falciparum strain Dd2 is given as “S”.

Consider `OC(c1cc(C(F)(F)F)nc2c(C(F)(F)F)cccc12)C1CCCCN1` (stereo not shown) [Mefloquine], for which the “Drug susceptibility, strain D6” value in the series with P. falciparum strain D6 was “S/R”. For the same molecule, the “Drug susceptibility, strain FCR3” value in [1] was “S”. Further, the “Drug susceptibility, strain W2” value with P. falciparum strain W2 was “S”. The “Drug susceptibility, strain Dd2” value in the series on P. falciparum strain Dd2 is “R”. Besides, the “Drug susceptibility, strain TM91C235” value in [2] was “R”.

For `CCN1CCN(c2ccnc3cc(Cl)ccc23)CC1` [Q_38a], the IC50 (commonly the concentration needed to halve the response being measured) in series [3] was determined as 280 nM; in series [4], 400 nM.

For the molecule `C=C[C@H]1C[N@@]2CC[C@H]1C[C@H]2[C@H](O)c1ccnc2ccc(OC)cc12` [Quinine], in the series on P. falciparum strain D6, the “Drug susceptibility, strain D6” value was “S”. Also, in series [1], the “Drug susceptibility, strain FCR3” value is “S”. The “Drug susceptibility, strain W2” value with P. falciparum strain W2 is reported as “R”. Further, in the series with P. falciparum strain Dd2, the “Drug susceptibility, strain Dd2” value is on record as “R”. For the same molecule, in [2], the “Drug susceptibility, strain TM91C235” value is on record as “R”.

Regarding `Clc1ccc2c(NCCCNCCN(c3ccccc3)c3ccccc3)ccnc2c1` [RCQ_05(desMe)], the IC50 in [3] was 36 nM; in [4], 27 nM.

Regarding `Clc1ccc2c(NCCCNCCCN(Cc3ccccc3)Cc3ccccc3)ccnc2c1` [RCQ_22], the 50% inhibitory concentration (IC50) in [3] amounted to 45 nM; in [4] it was 79 nM. The “Cytotoxicity” value in series [5] is given as 700 nM. The cytotoxicity values in series [5] stood at 700 nM.

As for `Clc1ccc2c(NCCCNCCCCN(Cc3ccccc3)Cc3ccccc3)ccnc2c1` [RCQ_26], the concentration for half-maximal inhibition (IC50) in [3] stood at 7.6 nM; in series [4] it was 10.6 nM.

As to `Clc1ccc(C(c2ccccc2)N2CCN(CCNc3ccnc4cc(Cl)ccc34)CC2)cc1` (stereo not shown) [RCQ_32], the figures for the concentration for half-maximal inhibition (IC50) in series [3], in series [4] and in [6] were 2.6 nM, 3.4 nM and 3.4 nM, respectively. Besides, in [5], the “Cytotoxicity” value came out at 1400 nM.

Turning to `CN(CCCN1c2ccccc2CCc2ccccc21)CCNc1ccnc2cc(Cl)ccc12` [RCQ_33], the IC50 in [3] is 8.1 nM; in series [4], 9.3 nM; in [6], 9.3 nM. Moreover, the “Cytotoxicity” value in series [5] is reported as 1400 nM.

As to `Clc1ccc2c(NCCCN3CCN(C(c4ccccc4)c4ccccc4)CC3)ccnc2c1` [RCQ_34], the IC50 in [3] was determined as 2.4 nM; in series [4], 3.7 nM; in series [6], 2.5 nM. Further, the “Cytotoxicity” value in [5] came to 1100 nM.

As for `Clc1ccc(C(c2ccccc2)N2CCN(CCCNc3ccnc4cc(Cl)ccc34)CC2)cc1` (stereo not shown) [RCQ_35], the IC50 in series [3] was 4 nM; in series [4] it was 6 nM; in [6], 4 nM. For the same molecule, the “Cytotoxicity” value in [5] amounted to 800 nM.

For the molecule `Clc1ccc2c(NCCN3CCCN(C(c4ccccc4)c4ccccc4)CC3)ccnc2c1` [RCQ_36], the IC50 in series [3] stood at 11.7 nM. In addition, the IC50 in series [4] was determined as 98 nM. Further, in series [5], the “Cytotoxicity” value stood at 5300 nM and the cytotoxicity values is 5300 nM.

Turning to `Fc1ccc(C(c2ccc(F)cc2)N2CCN(CCCNc3ccnc4cc(Cl)ccc34)CC2)cc1` [RCQ_37F2], the IC50 in [3] was 15 nM; in series [4], 19 nM. The “Cytotoxicity” value in [5] worked out at 4100 nM.

With `Clc1ccc2c(NCCCN3CCC(=C4c5ccccc5C=Cc5ccccc54)CC3)ccnc2c1` [RCQ_42], the IC50 in series [3] came to 2.1 nM; in series [4], 1.8 nM. Also, the “Cytotoxicity” value in [5] was determined as 1100 nM.

On to `Clc1ccc2c(NCCN3CCCN(C4c5ccccc5-c5ccccc54)CC3)ccnc2c1` [RCQ_72], for which the IC50 is 9.2 nM in [3] and 9.6 nM in series [4]. The “Cytotoxicity” value in series [5] was found to be 2500 nM.

Consider `Clc1ccc2c(NCCCN3CCCN(C(c4ccccc4)c4ccccc4)CC3)ccnc2c1` [RCQ_73], for which the concentration for half-maximal inhibition (IC50) in series [3] was 4.8 nM; in [4], 4.1 nM; in series [7], 1160 nM; in series [8], 1400 nM; in series [9], 660 nM. For the same molecule, the “Cytotoxicity” value in [5] is listed as 700 nM. In series [5], this molecule registered a cytotoxicity values of 700 nM.

With `Clc1ccc(C(c2ccccc2)N2CCCN(CCCNc3ccnc4cc(Cl)ccc34)CC2)cc1` (stereo not shown) [RCQ_74], the IC50 was 15 nM in [3] and 9.8 nM in series [4]. The “Cytotoxicity” value in series [5] is reported as 900 nM.

As to `Clc1ccc2c(NCCCN3CCCN(C4c5ccccc5-c5ccccc54)CC3)ccnc2c1` [RCQ_76], the IC50 amounted to 21.1 nM in series [3]; 15.3 nM in [4]; 965 nM in series [7]; 1080 nM in series [8]; 550 nM in series [9]. Also, in series [5], the “Cytotoxicity” value was 2500 nM.

With `Clc1ccc2c(N3CCN(CCN(Cc4ccccc4)Cc4ccccc4)CC3)ccnc2c1` [RCQ_351], the IC50 was determined as 141 nM in series [3] and 164 nM in [4].

In the case of `COc1ncnc(NS(=O)(=O)c2ccc(N)cc2)c1OC` [Sulfadoxine], the “Drug susceptibility, strain D6” value in the series on P. falciparum strain D6 was “S”. In addition, the “Drug susceptibility, strain FCR3” value in series [1] is “S”. In addition, the “Drug susceptibility, strain W2” value in the series with P. falciparum strain W2 is “R”. The “Drug susceptibility, strain Dd2” value with P. falciparum strain Dd2 was “S”. The “Drug susceptibility, strain TM91C235” value in [2] is “R”.
